What all share (assay type): cell-based
One test addresses T1, CDK2 (Homo sapiens, UniProt P24941).
T1 construct: host or cells: HEK293
Briefly: CDK2 HIBIT PQ (protein quantification), degradation. As to conditions: for CDK2 HIBIT PQ Max (%): Max = Maximum; for DC50: PQ = Protein Quantification. Put shortly: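 DC50 and maximal degradation were derived from a HiBiT lytic readout in HEK293 cells carrying HiBiT-tagged CDK2. Cells were seeded in 384-well plates at 1.6×10^5 cells/well in 50 uL of DMEM with 10% FBS, incubated overnight at 37° C and 5% CO2, treated with compound for 6 hours, and then given 20 μL of HiBiT reagent with 20 minutes of shaking at room temperature before an EnVision reading. Wells with 0.1% DMSO served as the high control and wells with medium only as the low control.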

The target of a further test is T2, CDK9 (Homo sapiens, UniProt P50750).
T2 construct: host or cells: HEK293
In words: CDK9 HIBIT PQ (protein quantification), degradation. As to conditions: for Dmax: Max = Maximum; for DC50: PQ = Protein Quantification. Put shortly:
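HEK293 cells bearing HiBiT-tagged CDK9 were cultured in DMEM with 10% FBS, plated into 384-well plates at 1.6×10^5 cells/well in 50 uL, and left overnight at 37° C and 5% CO2. A HiBiT assay measured CDK9 protein after compound treatment, with 0.1% DMSO-treated cells as the high control and culture medium alone as the low control. These readings gave the maximal degradation, Dmax and DC50.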

The target in the next test is T3, CCNE1 (Homo sapiens, UniProt P24864+P24941).
T3 construct: host or cells: HEK293
In words: CCNE1 HIBIT PQ (protein quantification), degradation. As to conditions: for CCNE1 HIBIT PQ Max (%): Max = Maximum; for DC50: PQ = Protein Quantification. The method in brief: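 HEK293 cells with HiBiT-tagged CCNE1 were cultured in EMEM containing 10% FBS, plated at 1.6×10⁵ cells/well in 50 uL in 384-well plates and left overnight at 37° C with 5% CO₂. After 6 hours of compound exposure, a HiBiT assay measured CCNE1 protein, with 0.1% DMSO-treated cells as the high control and medium alone as the low control. DC50 and maximal degradation came from these readings.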

This note sets out measurements from patent US20260062426A1, “CYCLIN DEPENDENT KINASE DEGRADERS AND METHODS OF USE THEREOF” (Differentiated Therapeutics Inc, priority 2023, published 2026).

SMILES strings stand for the structures.

T2 sequence (P50750 whole entry): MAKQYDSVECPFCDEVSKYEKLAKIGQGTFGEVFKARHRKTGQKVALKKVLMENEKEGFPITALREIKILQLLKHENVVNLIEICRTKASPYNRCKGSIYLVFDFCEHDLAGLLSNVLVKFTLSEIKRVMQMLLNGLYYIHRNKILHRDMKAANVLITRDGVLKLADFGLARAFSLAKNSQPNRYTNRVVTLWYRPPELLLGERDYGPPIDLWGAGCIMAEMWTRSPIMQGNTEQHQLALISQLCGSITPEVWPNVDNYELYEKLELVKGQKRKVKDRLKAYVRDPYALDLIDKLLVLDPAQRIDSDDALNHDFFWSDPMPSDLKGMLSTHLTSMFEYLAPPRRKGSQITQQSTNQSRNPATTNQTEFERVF

Take `CC(C)Oc1c(-c2cn[nH]c2)ncn2nc(Nc3ccc(S(=O)(=O)c4cccc(C[C@H]5C[C@@H](c6ccc7c(c6)CN([C@H]6CCC(=O)NC6=O)C7=O)C5)c4)cc3F)nc12` (stereo in doubt) [Compound 81, (S)-3-(5-((1r,3R)-3-(3-((3-fluoro-4-((8-isopropoxy-7-(1H-pyrazol-4-yl)-[1,2,4]triazolo[1,5-c]pyrimidin-2-yl)amino)phenyl)sulfonyl)benzyl)cyclobutyl)-1-oxoisoindolin-2-yl)piperidine-2,6-dione]: at CDK2, the “CDK2 HIBIT PQ Max (%)” value is listed as 86% and the DC50 was 24.2 nM. Moreover, the Dmax on CDK9 came out at 1%. Also, on CCNE1, the “CCNE1 HIBIT PQ Max (%)” value was 57% and the DC50 is 62.8 nM.
As to `CC(C)Oc1c(-c2cn[nH]c2)ncn2nc(Nc3ccc(S(=O)(=O)c4cccc(C[C@H]5C[C@H](c6ccc7c(c6)CN([C@H]6CCC(=O)NC6=O)C7=O)C5)c4)cc3F)nc12` (stereo in doubt) [Compound 82, (S)-3-(5-((1s,3S)-3-(3-((3-fluoro-4-((8-isopropoxy-7-(1H-pyrazol-4-yl)-[1,2,4]triazolo[1,5-c]pyrimidin-2-yl)amino)phenyl)sulfonyl)benzyl)cyclobutyl)-1-oxoisoindolin-2-yl)piperidine-2,6-dione], on CDK2, the “CDK2 HIBIT PQ Max (%)” value is recorded as 88% and the DC50 came out at 23.4 nM. In addition, the Dmax on CDK9 was 27%. Moreover, on CCNE1, the “CCNE1 HIBIT PQ Max (%)” value stood at 52% and the DC50 was 100 nM.
For `CC(C)Oc1c(-c2cn[nH]c2)ncn2nc(NC3CCN(S(=O)(=O)c4cccc(CN5CCC(c6ccc7c(N8CCC(=O)NC8=O)nn(C)c7c6)CC5)c4)CC3)nc12` [Compound 1, 1-(6-(1-(3-((4-((8-isopropoxy-7-(1H-pyrazol-4-yl)-[1,2,4]triazolo[1,5-c]pyrimidin-2-yl)amino)piperidin-1-yl)sulfonyl)benzyl)piperidin-4-yl)-1-methyl-1H-indazol-3-yl)dihydropyrimidine-2,4(1H,3H)-dione], on CDK2, the “CDK2 HIBIT PQ Max (%)” value came out at 93% and the DC50 came to 1.62 nM. Also, at CDK9, the Dmax was found to be 104% and the DC50 was 2.98 nM. Besides, at CCNE1, the “CCNE1 HIBIT PQ Max (%)” value amounted to 92% and the DC50 was 1.94 nM.
`CC(C)Oc1c(-c2cn[nH]c2)ncn2nc(N[C@H]3CCN(S(=O)(=O)c4cccc(CN5CCC(c6ccc7c(N8CCC(=O)NC8=O)nn(C)c7c6)CC5)c4)C[C@H]3C)nc12` [Compound 5]: on CDK2, the “CDK2 HIBIT PQ Max (%)” value came out at 92% and half-maximal degradation (DC50) was put at 1.67 nM. For the same compound, at CDK9, the Dmax stood at 104% and it took 3.91 nM to reach half-maximal degradation (DC50). At CCNE1, the “CCNE1 HIBIT PQ Max (%)” value came to 94% and the DC50 is 3.16 nM.
`CC(C)Oc1c(-c2cn[nH]c2)ncn2nc(N[C@H]3CCN(S(=O)(=O)N(C)CCCN4CCC(c5cccc6c5n(C)c(=O)n6C5CCC(=O)NC5=O)CC4)C[C@H]3C)nc12` (some centres unmarked) [Compound 7]: on CDK2, the “CDK2 HIBIT PQ Max (%)” value amounted to 92% and it took 1.07 nM to reach half-maximal degradation (DC50). In addition, on CDK9, the Dmax was 91% and it took 2.13 nM to reach half-maximal degradation (DC50). Also, on CCNE1, the “CCNE1 HIBIT PQ Max (%)” value is 96% and half-maximal degradation (DC50) was put at 0.76 nM.
Take `CC(C)Oc1c(-c2cn[nH]c2)ncn2nc(Nc3ccc(S(=O)(=O)c4cccc(CN5CCC(c6ccc7c(N8CCC(=O)NC8=O)nn(C)c7c6)CC5)c4)cc3F)nc12` [Compound 8, 1-(6-(1-(3-((3-fluoro-4-((8-isopropoxy-7-(1H-pyrazol-4-yl)-[1,2,4]triazolo[1,5-c]pyrimidin-2-yl)amino)phenyl)sulfonyl)benzyl)piperidin-4-yl)-1-methyl-1H-indazol-3-yl)dihydropyrimidine-2,4(1H,3H)-dione]: at CDK2, the “CDK2 HIBIT PQ Max (%)” value was 92% and half-maximal degradation (DC50) was put at 1.58 nM. Further, at CDK9, the Dmax is 91% and the DC50 was found to be 10.2 nM. Besides, at CCNE1, the “CCNE1 HIBIT PQ Max (%)” value is recorded as 81% and half-maximal degradation (DC50) was put at 7.36 nM.
On to `CC(C)Oc1c(-c2cn[nH]c2)ncn2nc(Nc3ccc(S(=O)(=O)N(C)CCCN4CCC(c5ccc6c(N7CCC(=O)NC7=O)nn(C)c6c5)CC4)cc3F)nc12` [Compound 15], for which, at CDK2, the “CDK2 HIBIT PQ Max (%)” value is given as 95% and the DC50 is 0.35 nM. Moreover, on CDK9, the Dmax worked out at 99% and the DC50 stood at 1.37 nM. On CCNE1, the “CCNE1 HIBIT PQ Max (%)” value turned out to be 93% and the DC50 was determined as 0.72 nM.
In the case of `CC(C)Oc1c(-c2cn[nH]c2)ncn2nc(Nc3ccc(S(=O)(=O)N(C)CCCN4CCC(c5cccc6c(N7CCC(=O)NC7=O)nn(C)c56)CC4)cc3F)nc12` [Compound 24], on CDK2, the “CDK2 HIBIT PQ Max (%)” value amounted to 94% and half-maximal degradation (DC50) was put at 0.6 nM. For the same compound, the Dmax on CDK9 is 14%. Moreover, on CCNE1, the “CCNE1 HIBIT PQ Max (%)” value was found to be 88% and half-maximal degradation (DC50) was put at 3.14 nM.
For `CC(C)Oc1c(-c2cn[nH]c2)ncn2nc(Nc3ccc(S(=O)(=O)c4cccc(CN5CCC(c6cccc7c(N8CCC(=O)NC8=O)nn(C)c67)CC5)c4)cc3F)nc12` [Compound 26], at CDK2, the “CDK2 HIBIT PQ Max (%)” value came out at 84% and the DC50 stood at 3.8 nM. Further, the Dmax at CDK9 stood at 13%. At CCNE1, the “CCNE1 HIBIT PQ Max (%)” value is 51% and it took 2.4 nM to reach half-maximal degradation (DC50).
For the compound `CC(C)Oc1c(-c2cn[nH]c2)ncn2nc(Nc3ccc(S(=O)(=O)N4CC5(CCCN(CCOc6cccc7c6n(C)c(=O)n7C6CCC(=O)NC6=O)C5)C4)cc3F)nc12` (centres unmarked) [Compound 27], on CDK2, the “CDK2 HIBIT PQ Max (%)” value was found to be 66% and the DC50 came to 6.3 nM. Besides, the Dmax at CDK9 came out at 6%. Moreover, the “CCNE1 HIBIT PQ Max (%)” value at CCNE1 is recorded as 10%.
For `CC(C)Oc1c(-c2cn[nH]c2)ncn2nc(Nc3ccc(S(=O)(=O)c4cccc(C[C@H]5C[C@@H](c6ccc7c(c6)CN(C6CCC(=O)NC6=O)C7=O)C5)c4)cc3F)nc12` (some centres unmarked) [Compound 29, 3-{1-oxo-5-[(1s,3s)-3-{[3-(3-fluoro-4-{[8-isopropoxy-7-(1H-pyrazol-4-yl)-[1,2,4]triazolo[1,5-c]pyrimidin-2-yl]amino}benzenesulfonyl)phenyl]methyl}cyclobutyl]-3H-isoindol-2-yl}piperidine-2,6-dione], on CDK2, the “CDK2 HIBIT PQ Max (%)” value was 94% and the DC50 stood at 8 nM. Besides, the Dmax at CDK9 is 12%. Moreover, at CCNE1, the “CCNE1 HIBIT PQ Max (%)” value is 78% and it took 18.7 nM to reach half-maximal degradation (DC50).
For `CC(C)Oc1c(-c2cn[nH]c2)ncn2nc(Nc3ccc(S(=O)(=O)c4cccc(C[C@H]5C[C@H](c6ccc7c(c6)CN(C6CCC(=O)NC6=O)C7=O)C5)c4)cc3F)nc12` (some centres unmarked) [Compound 30], on CDK2, the “CDK2 HIBIT PQ Max (%)” value is 96% and half-maximal degradation (DC50) was put at 7.2 nM. At CDK9, the Dmax worked out at 54% and the DC50 was found to be 147 nM. In addition, on CCNE1, the “CCNE1 HIBIT PQ Max (%)” value came out at 79% and the DC50 stood at 29.5 nM.
As to `CC(C)Oc1c(-c2cn[nH]c2)ncn2nc(Nc3ccc(S(=O)(=O)c4cccc(CC5CC(c6ccc7c(N8CCC(=O)NC8=O)nn(C)c7c6)C5)c4)cc3F)nc12` (centres unmarked) [Compound 33, 1-(6-(3-(3-((3-fluoro-4-((8-isopropoxy-7-(1H-pyrazol-4-yl)-[1,2,4]triazolo[1,5-c]pyrimidin-2-yl)amino)phenyl)sulfonyl)benzyl)cyclobutyl)-1-methyl-1H-indazol-3-yl)dihydropyrimidine-2,4(1H,3H)-dione], at CDK2, the “CDK2 HIBIT PQ Max (%)” value was 91% and it took 19 nM to reach half-maximal degradation (DC50). The Dmax on CDK9 came out at 9%. In addition, at CCNE1, the “CCNE1 HIBIT PQ Max (%)” value is listed as 47%.
With `CC(C)Oc1c(-c2cn[nH]c2)ncn2nc(Nc3ccc(S(=O)(=O)c4cccc(N5CCC6C5CN6c5ccc6c(c5)CN(C5CCC(=O)NC5=O)C6=O)c4)cc3F)nc12` (centres unmarked) [Compound 34, 3-(5-{2-[3-(3-fluoro-4-{[8-isopropoxy-7-(1H-pyrazol-4-yl)-[1,2,4]triazolo[1,5-c]pyrimidin-2-yl]amino}benzenesulfonyl)phenyl]-2,6-diazabicyclo[3.2.0]heptan-6-yl}-1-oxo-3H-isoindol-2-yl)piperidine-2,6-dione], at CDK2, the “CDK2 HIBIT PQ Max (%)” value is on record as 86% and half-maximal degradation (DC50) was put at 5.6 nM. Moreover, the Dmax at CDK9 turned out to be 31%. Besides, on CCNE1, the “CCNE1 HIBIT PQ Max (%)” value was 62% and the half-maximal degradation concentration (DC50) was 14.1 nM.
Turning to `CC(C)Oc1c(-c2cn[nH]c2)ncn2nc(Nc3ccc(S(=O)(=O)c4cccc(N5CCCC6C5CN6c5ccc6c(c5)CN(C5CCC(=O)NC5=O)C6=O)c4)cc3F)nc12` (centres unmarked) [Compound 35], on CDK2, the “CDK2 HIBIT PQ Max (%)” value was found to be 79% and the half-maximal degradation concentration (DC50) stood at 6.5 nM. For the same compound, on CDK9, the Dmax amounted to 17%. On CCNE1, the “CCNE1 HIBIT PQ Max (%)” value came out at 25%.
On to `CC(C)Oc1c(-c2cn[nH]c2)ncn2nc(Nc3ccc(S(=O)(=O)N4CCC5(CCN(C6CCN(c7ccc8c(c7)n(C)c(=O)n8C7CCC(=O)NC7=O)CC6)C5)C4)cc3F)nc12` (centres unmarked) [Compound 36], for which, at CDK2, the “CDK2 HIBIT PQ Max (%)” value was found to be 89% and the DC50 was 2.9 nM. Further, on CDK9, the Dmax is 87% and half-maximal degradation (DC50) was put at 57.6 nM. Besides, on CCNE1, the “CCNE1 HIBIT PQ Max (%)” value is 63% and it took 22.1 nM to reach half-maximal degradation (DC50).
On to `CC(C)Oc1c(-c2cn[nH]c2)ncn2nc(Nc3ccc(S(=O)(=O)N4CCC5(CCCN5C5CCN(c6ccc7c(c6)n(C)c(=O)n7C6CCC(=O)NC6=O)CC5)C4)cc3F)nc12` (centres unmarked) [Compound 37], for which, on CDK2, the “CDK2 HIBIT PQ Max (%)” value was 84% and it took 2.9 nM to reach half-maximal degradation (DC50). Further, on CDK9, the Dmax came to 51% and the DC50 was determined as 43.7 nM. For the same compound, at CCNE1, the “CCNE1 HIBIT PQ Max (%)” value amounted to 30%.
